Data published in patent US10059694B2, “2-aminopyrimidine compound and pharmaceutical composition and use thereof” (Shanghai Institute of Materia Medica, Chinese Academy of …, priority 2014, dated 2018).

Tests used:
[1] = system: human lung cancer NCI-H1975 nude mice subcutaneous xenografts; experiment: NCI-H1975 nude mice subcutaneous xenograft; assay type: in vivo
Experimental: The tumor tissue in the growth stage was taken and cut into small pieces of about 1.5 mm^3, which were inoculated subcutaneously in nude mice under aseptic conditions. When the tumor was grown to about 100 mm^3, nude mice were random allocated. […] The mice were gavage administered once a day for 11 days, and the solvent control group (injection water containing 1% Tween 80) was set. During the whole experiment, the diameter of the transplanted tumor was measured twice a week with a vernier caliper and the weights of the mice were weighed. The volume of tumor was calculated as follows: TV=½×a×b^2 (Where a,b respectively represent long and wide)

[2] = system: human non-small cell lung cancer NCI-H1975 cell line; experiment: SRB proliferation assay, NCI-H1975 cells; assay type: cell-based; conditions: NCI-H1975, SRB, 72 h, read-out: IC50 NCI-H1975
How it was run: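 NCI-H1975 cells in log phase were allowed to adhere for 24 h, then treated with compound in triplicate for 72 h. Cells were TCA-fixed and SRB-stained, with OD read at 515 nm; IC50 derived from growth inhibition versus DMSO control.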

IGF-1R = biological target: T1, IGF-1R (Homo sapiens, UniProt P08069); experiment: kinase inhibitory activity test (ELISA), IGF-1R; assay type: biochemical; conditions: ATP 5 μM, 1 hour at 37° C.
T1 construct: purchased Millipore
How it was run: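 Poly(Glu,Tyr)4:1-coated plates; kinase reacted 1 h at 37 °C with 5 μM ATP (final) in HEPES pH 7.4 buffer with Mg2+/Mn2+. Phosphotyrosine detected by PY99 and HRP anti-mouse IgG with OPD at 490 nm; IC50 from four-parameter fit.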

EGFR^T790M/L858R = biological target: T2, EGFR^T790M/L858R (Homo sapiens, UniProt P00533, L858R/T790M); experiment: kinase inhibitory activity test (ELISA), EGFR^T790M/L858R; assay type: biochemical
T2 construct: purchased Millipore
How it was run: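 ELISA on poly(Glu,Tyr)4:1-coated plates; kinase reaction with 5 μM ATP (final) in 50 mM HEPES pH 7.4, 50 mM MgCl2, 5 mM MnCl2, 0.2 mM Na3VO4, 1 mM DTT, 1 h at 37° C. Phosphotyrosine detected via PY99/HRP and OPD at 490 nm; IC50 by four-parameter fit.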

T2 sequence (P00533 25-1210 T790M/L858R): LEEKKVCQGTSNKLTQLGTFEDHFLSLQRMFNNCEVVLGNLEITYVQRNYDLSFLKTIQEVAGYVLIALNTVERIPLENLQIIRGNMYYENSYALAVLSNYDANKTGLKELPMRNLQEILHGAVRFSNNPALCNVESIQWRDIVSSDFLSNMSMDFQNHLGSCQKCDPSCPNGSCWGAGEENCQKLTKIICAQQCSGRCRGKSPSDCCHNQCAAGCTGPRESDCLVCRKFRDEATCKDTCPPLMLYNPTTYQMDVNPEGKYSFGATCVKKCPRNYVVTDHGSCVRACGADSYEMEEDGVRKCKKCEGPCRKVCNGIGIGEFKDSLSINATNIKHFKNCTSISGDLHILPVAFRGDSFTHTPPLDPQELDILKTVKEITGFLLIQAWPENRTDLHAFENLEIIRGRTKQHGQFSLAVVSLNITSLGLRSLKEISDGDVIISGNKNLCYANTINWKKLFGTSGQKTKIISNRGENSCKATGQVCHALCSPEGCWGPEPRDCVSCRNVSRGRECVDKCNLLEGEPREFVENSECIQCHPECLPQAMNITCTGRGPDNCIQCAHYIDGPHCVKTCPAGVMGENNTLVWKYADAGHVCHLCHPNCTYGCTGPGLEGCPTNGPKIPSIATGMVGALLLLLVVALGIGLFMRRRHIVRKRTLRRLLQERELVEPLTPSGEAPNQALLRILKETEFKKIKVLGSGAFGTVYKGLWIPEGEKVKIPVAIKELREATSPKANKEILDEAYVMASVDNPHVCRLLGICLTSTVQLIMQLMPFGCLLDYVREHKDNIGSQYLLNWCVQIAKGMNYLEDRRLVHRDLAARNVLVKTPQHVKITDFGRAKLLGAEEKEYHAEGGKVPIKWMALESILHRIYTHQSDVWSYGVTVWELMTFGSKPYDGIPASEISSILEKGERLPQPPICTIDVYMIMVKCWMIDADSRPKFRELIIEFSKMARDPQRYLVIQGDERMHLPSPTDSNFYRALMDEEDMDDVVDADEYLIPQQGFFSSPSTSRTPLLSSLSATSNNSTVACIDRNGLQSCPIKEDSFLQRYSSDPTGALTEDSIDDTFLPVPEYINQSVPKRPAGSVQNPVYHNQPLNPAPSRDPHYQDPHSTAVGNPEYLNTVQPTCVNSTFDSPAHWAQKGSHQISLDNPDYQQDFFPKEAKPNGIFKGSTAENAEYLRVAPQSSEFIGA
T1 sequence (P08069 31-1367): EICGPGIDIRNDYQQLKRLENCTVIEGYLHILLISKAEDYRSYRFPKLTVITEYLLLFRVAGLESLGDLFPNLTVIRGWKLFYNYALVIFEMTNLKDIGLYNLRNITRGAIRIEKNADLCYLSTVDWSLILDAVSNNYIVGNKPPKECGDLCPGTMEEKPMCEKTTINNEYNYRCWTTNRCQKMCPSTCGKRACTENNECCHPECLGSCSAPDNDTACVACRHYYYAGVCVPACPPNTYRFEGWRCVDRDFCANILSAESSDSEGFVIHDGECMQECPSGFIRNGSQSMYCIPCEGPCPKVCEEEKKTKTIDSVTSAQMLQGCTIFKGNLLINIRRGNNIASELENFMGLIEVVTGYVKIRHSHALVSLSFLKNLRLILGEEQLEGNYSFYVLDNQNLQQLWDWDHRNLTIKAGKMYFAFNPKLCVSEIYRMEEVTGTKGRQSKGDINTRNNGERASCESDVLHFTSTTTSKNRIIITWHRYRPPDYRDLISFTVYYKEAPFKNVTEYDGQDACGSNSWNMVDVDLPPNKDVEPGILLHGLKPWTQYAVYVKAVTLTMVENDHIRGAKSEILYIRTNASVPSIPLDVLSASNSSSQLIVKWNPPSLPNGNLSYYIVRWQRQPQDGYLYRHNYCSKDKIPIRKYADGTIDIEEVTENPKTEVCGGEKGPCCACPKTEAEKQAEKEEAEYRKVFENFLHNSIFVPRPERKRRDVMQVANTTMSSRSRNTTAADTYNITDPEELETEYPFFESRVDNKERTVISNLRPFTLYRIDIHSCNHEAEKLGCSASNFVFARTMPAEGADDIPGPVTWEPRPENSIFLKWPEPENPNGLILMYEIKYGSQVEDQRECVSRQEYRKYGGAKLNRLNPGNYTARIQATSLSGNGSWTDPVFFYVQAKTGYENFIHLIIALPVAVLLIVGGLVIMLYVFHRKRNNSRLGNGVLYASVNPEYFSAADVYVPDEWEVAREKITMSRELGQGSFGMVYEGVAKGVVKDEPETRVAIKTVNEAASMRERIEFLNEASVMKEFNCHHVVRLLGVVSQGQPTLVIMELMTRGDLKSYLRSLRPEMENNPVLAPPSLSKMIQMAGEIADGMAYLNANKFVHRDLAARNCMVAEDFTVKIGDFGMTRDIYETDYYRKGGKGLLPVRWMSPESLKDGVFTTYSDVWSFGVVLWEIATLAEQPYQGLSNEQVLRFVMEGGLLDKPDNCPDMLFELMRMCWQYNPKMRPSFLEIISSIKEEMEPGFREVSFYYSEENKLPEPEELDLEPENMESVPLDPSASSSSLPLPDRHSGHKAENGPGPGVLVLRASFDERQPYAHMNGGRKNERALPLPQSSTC

C=CC(=O)Nc1cc(Nc2ncc(Cl)c(Nc3ccc4ccccc4c3)n2)c(OC)cc1N(C)CCN(C)C [CCB120067, N-((5-((5-chloro-4-((naphthalen-2-yl)amino))pyrimidin-2-yl)amino)-2-((N-methyl-N-dimethylaminoethyl)amino)-4-methoxyphenyl)acrylamide]
inhibition of tumor growth ([1]; 10 mg/kg gavage once a day for 11 days, FIG. 3): significantly inhibit | tumor regression ([1]; 10 mg/kg gavage, after 7 days of administration): completely subsided | inhibitory activity on tumor growth compared with positive control ([1]; CCB120067 10 mg/kg versus CO1686 100 mg/kg): stronger than anti-tumor effect of CO1686 at 100 mg/kg dose | IC50 [2]: 1 to 56 nM | IC50 (IGF-1R): 31.9 nM | IC50 (EGFR^T790M/L858R; ELISA, ATP 5 μM, 1 hour at 37° C.): 0.4 nM | kinase inhibitory activity (in words) (EGFR^T790M/L858R; summary of Table 1): potent
